Assay results as given in patent publication US20230405134A1, “NOVEL PROTAC CHIMERIC COMPOUND, AND PHARMACEUTICAL COMPOSITION COMPRISING SAME FOR PREVENTING, AMELIORATING, OR TREATING DISEASES THROUGH TARGET PROTEIN DEGRADATION” (POSTECH RESEARCH AND BUSINESS DEVELOPMENT FOUNDATION, priority 2020, published 2023).
Where a SMILES comes first, the peptide text is derived from it. Bridges are numbered along the chain shown (N, C = ends). [ ]: non-standard residue; d: D form. Cha = N[C@@H](CC1CCCCC1)C(=O)O; S5 = C=CCCC[C@](C)(N)C(=O)O

Experiments:
SRC-3 = biological target: T1, SRC-3 (Homo sapiens, UniProt Q9Y6Q9); assay: SRC-3 expression level in MDA-MB-231 cells by Western blot; assay type: cell-based; conditions: 20 μM
T1 construct: endogenous in cells; host or cells: MDA-MB-231
Method: It was confirmed whether ND1-YL2 could selectively target and degrade SRC-1 over other SRC family members. Considering the structural similarity between SRC members, it can be predicted that ND1-YL2 will be able to bind to and degrade other members of the SRC family, such as SRC-3. […] To test this, TNBC MDA-MB-231 cells were treated with ND1-YL2 and the amounts of SRC-3 and SRC-1 were confirmed at the cellular level by Western blotting (FIG. 17).

CSF-1 = CSF-1 mRNA level by RT-qPCR in MDA-MB-231 cells; assay type: cell-based, human; conditions: 12 hours
Text: (§1) The pharmacological effects on SRC-1 dependent signal transmission were explored using the previously discovered SRC-1 degrading substance. The SRC-1 is overexpressed in various cancers and plays a pivotal role in increasing cell migration and invasion by regulating the expression of related genes. Therefore, when treated with ND1-YL2, an SRC-1 degrading substance, the expression of genes stimulated by SRC-1, such as colony stimulating factor-1 (CSF-1), a gene encoding the cytokine CSF-1 that induces cell differentiation and migration, will be suppressed. To confirm this, MDA-MB-231 cells were treated with DMSO and various concentrations of ND1-YL2, YL2 or N-degron tetrapeptide for 12 hours, and the mRNA level of CSF-1 was normalized to 18S level. Confirmation was made using quantitative real-time polymerase chain reaction (RT-qPCR). MDA-MB-231 cells were seeded at 2×10^5 cells per well. After 24 hours, compounds (YL2, RLAA or ND1-YL2) were treated in Opti-MEM medium for 12 hours. Subsequently, general mRNA isolation was performed using TRI reagent (Takara), and total mRNA was isolated from the cells. The absorbance of total mRNA was measured with a Tecan F200 Nanophotometer, and reverse transcription was performed using AccuPower RocketScript Cycle RT PreMix (Bioneer). Quantitative real-time PCR for CSF-1, E-Cadherin and 18S was performed using a StepOnePlus Real-Time PCR System and SYBR Green mix (Applied Biosystems) according to the manufacturer's manual.

E-cadherin = E-cadherin mRNA level by RT-qPCR in MDA-MB-231 cells; assay type: cell-based, human; conditions: 12 hours
Text: as §1
In addition, the effect of the ND1-YL2 on the expression of E-cadherin, a tumor suppressor gene that plays an important role in cell-cell adhesion, was tested. Since SRC-1 protein is known to suppress the E-cadherin expression, the ND1-YL2 will upregulate the E-cadherin by degrading SRC-1.

MDA-MB-231 cells = assay: Matrigel invasion assay; assay type: cell-based, human; conditions: 24 hours; ND1-YL2 various concentrations, YL2 and RLAA 20 μM
Method: The inhibition of cell migration may be due to the inhibitory effect of ND1-YL2 on cell growth. In order to exclude this possibility, the invasive ability of cells treated with ND1-YL2 was confirmed. A Corning Matrigel insert (Corning) was placed in a 24-well plate. After hydrating the Matrigel insert with an FBS-free DMEM medium for 2 hours in a CO2 incubator, MDA-MB-231 cells were cultured in the Matrigel insert (4×10^4 cells/insert) with 125 μL of Opti-MEM medium. Another 125 μl of compound containing Opti-MEM medium was added to the insert. The lower chamber was filled with 500 μL of DMEM medium containing 10% FBS. The Matrigel chamber was cultured for 24 hours under the conditions of 37° C. and 5% CO2. The cell culture media of the upper and lower chambers were removed and washed three times with cold DPBS. Non-invasive cells were then removed with a cotton swab. The bottom of the chamber was fixed with 4% formaldehyde for 10 minutes at room temperature, and stained with Hoechst 33342 (5 μg/mL) for 5 minutes in a CO2 incubator. After washed with DPBS, images of infiltrated cells were obtained by a fluorescence microscope. The percentage of the invasive cells was calculated using the product manual. MDA-MB-231 cells were treated with various concentrations of ND1-YL2, N-degron (20 μM) or YL2 (20 μM). After 24 hours, images of the invaded cells were obtained by a fluorescence microscope, and the number of invaded cells was quantified through the images. […] The inhibitory activity of ND1-YL2 on cell migration and invasion is in good agreement with previous SRC-1 knockdown experiments.

HEK293T = assay: Cell viability assay; assay type: cell-based; conditions: various concentrations, 48 hours
Method: To further confirm the above results, an MTT cell viability assay was performed. MDA-MB-231 (1×10^4 cells/well), HEK293T (1×10^4 cells/well) and Colo205 (2×10^4 cells/well) cells were seeded in a 96-well plate, and cultured under the conditions of 37° C. and 5% carbon dioxide. After 24 hours, the cells were washed twice with DPBS and treated with DMSO or various concentrations of ND1-YL2 in Opti-MEM medium for 48 hours. Cell viability was measured by the Cyto X cell viability assay kit (LPS solution) according to the manufacturer's instructions.

T1 sequence (Q9Y6Q9 whole entry): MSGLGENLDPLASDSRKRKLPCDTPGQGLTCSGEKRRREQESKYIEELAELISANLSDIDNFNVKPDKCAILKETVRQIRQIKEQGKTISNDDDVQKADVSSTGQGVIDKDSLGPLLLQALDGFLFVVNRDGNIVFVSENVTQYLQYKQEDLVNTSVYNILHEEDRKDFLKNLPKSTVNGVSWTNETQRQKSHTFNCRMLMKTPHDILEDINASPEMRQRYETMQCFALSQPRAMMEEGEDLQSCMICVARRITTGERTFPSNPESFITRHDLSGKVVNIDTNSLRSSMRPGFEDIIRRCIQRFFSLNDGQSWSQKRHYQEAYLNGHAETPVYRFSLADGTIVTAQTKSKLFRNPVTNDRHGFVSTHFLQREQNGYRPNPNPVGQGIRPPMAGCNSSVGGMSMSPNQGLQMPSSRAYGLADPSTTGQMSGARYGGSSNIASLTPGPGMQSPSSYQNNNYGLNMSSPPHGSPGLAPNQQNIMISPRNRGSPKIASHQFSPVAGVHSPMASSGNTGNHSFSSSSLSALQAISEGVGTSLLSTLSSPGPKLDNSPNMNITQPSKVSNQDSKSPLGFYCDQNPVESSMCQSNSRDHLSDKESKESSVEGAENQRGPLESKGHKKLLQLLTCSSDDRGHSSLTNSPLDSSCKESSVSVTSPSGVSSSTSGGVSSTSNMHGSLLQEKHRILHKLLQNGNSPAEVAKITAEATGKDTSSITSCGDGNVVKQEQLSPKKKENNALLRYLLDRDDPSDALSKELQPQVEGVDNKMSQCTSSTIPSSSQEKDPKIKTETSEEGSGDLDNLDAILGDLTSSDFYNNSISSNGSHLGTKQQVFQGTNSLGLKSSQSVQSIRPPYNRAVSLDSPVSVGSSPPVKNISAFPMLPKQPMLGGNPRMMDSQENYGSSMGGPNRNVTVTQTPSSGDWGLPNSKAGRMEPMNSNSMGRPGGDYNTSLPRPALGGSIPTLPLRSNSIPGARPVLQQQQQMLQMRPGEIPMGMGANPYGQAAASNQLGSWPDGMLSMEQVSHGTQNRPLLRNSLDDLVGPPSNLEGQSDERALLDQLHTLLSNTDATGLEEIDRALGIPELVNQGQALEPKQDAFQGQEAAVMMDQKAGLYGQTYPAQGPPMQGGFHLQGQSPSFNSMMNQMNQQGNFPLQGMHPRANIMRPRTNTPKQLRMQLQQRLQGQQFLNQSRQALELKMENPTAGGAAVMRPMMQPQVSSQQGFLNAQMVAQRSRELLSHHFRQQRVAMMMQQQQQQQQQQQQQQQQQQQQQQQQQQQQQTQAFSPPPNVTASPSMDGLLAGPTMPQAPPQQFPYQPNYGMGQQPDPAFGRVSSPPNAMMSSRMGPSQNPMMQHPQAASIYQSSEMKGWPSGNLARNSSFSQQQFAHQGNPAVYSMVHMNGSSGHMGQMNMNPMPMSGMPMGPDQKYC

## CC(C)C[C@H](NC(=O)[C@H](C)NC(=O)[C@H](C)NC(=O)[C@H](C)NC(=O)[C@H](C)NC(=O)[C@H](CC(C)C)NC(=O)[C@@H](N)CCCNC(=N)N)C(=O)N[C@@H](CC(C)C)C(=O)N1CCC[C@H]1C(=O)N1CCC[C@H]1C(=O)N[C@H](C(=O)N[C@@H](CCC(=O)O)C(=O)N[C@@H](CCC(N)=O)C(=O)N[C@@H](CC(=O)O)C(=O)N[C@@H](CC(C)C)C(=O)N[C@@]1(C)CCC/C=C\CCC[C@@](C)(C(=O)N[C@@H](Cc2ccc(O)cc2)C(N)=O)NC(=O)[C@H](CC2CCCCC2)NC(=O)[C@H](CC(C)C)NC(=O)[C@H](CCCCN)NC1=O)[C@@H](C)O [ND1-YL2] (H-RLAAAALLPPTEQDL[S5]KL[Cha][S5]Y-NH2; staple (Z) 16-20)
SRC-3
  Degradation effect on SRC-3: no degradation effect was observed
CSF-1
  Effect on CSF-1 expression (mRNA normalized to 18S): downregulated CSF-1 expression
E-cadherin
  Effect on E-cadherin expression (mRNA): dose-dependent increase
MDA-MB-231 cells
  Effect on cell invasion: cell invasion decreased as the treatment concentration of ND1-YL2 increased
HEK293T
  Effect on cell survival: did not significantly affect the survival
